Laboratory results reported in PubChem BioAssay AID1963858 (Molecular Pharmacology Branch, DTP, NCI, 2024).

System: HOP-62 multicell spheroids with HUVEC/MSC, viability
Assay: Anticancer human tumor HOP-62 cell line growth inhibition [KRAS2];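 also: viability read after a week of compound exposure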;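 as to viability, T/C: 100% = DMSO vehicle-treated spheroids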
Conditions: for IC50: curve of first compound; for viability, T/C: stronger effect = lower value
From the text: Multicellular complex tumor spheroid response to RAS pathway inhibitors in combination with a targeted agents in patient-derived cell lines with oncogenic KRAS variants from multiple cancer types
A high-throughput screen of multi-cell type tumor spheroids was designed to identify active combinations of targeted small molecules and KRAS pathway inhibitors. Complex spheroids include a stromal component modeled by human endothelial cells (HUVEC) and fibroblasts modeled by human mesenchymal stem cells (MSCs). The concentration ranges selected for each drug and investigational agent were based upon clinically achievable concentrations if the clinical Cmax of the agent was known.
Compounds. The drugs and investigational agents: BI-3406 (NSC825286), BAY-293 (NSC824723), batoprotafib (TNO155; NSC825523), sotorasib (AMG 510; NSC818433), MRTX1257 (NSC819558), elimusertib (BAY 1895344; NSC800525), molibresib (GSK525762; NSC774829), temuterkib (LY3214996; NSC803410), venetoclax (NSC766270), alisertib (NSC759677), olaparib (NSC753686), talazoparib (NSC767125), erdafitinib (NSC781556), ipatasertib (NSC767898), cabozantinib (NSC761068), nintedanib (NSC756659), abemaciclib (NSC768073), docetaxel (NSC628503), trametinib (NSC758246), and sapanisertib (NSC764658) were obtained from the National Cancer Institute (NCI) Developmental Therapeutics Program Chemical Repository. The FDA-approved anticancer drug set is available from the Developmental Therapeutics Program. […] The stock solutions were prepared in dimethyl sulfoxide (DMSO, Sigma-Aldrich, St. Louis, MO, cat. D2650) at 800-fold the tested concentration and stored at -70 degrees C prior to their use. All drugs and investigational agents were tested over a range starting from a high concentration at or near the clinical Cmax and decreasing in half-log increments. If the clinical Cmax for an agent had not been determined, the highest concentration tested was 10 microM.
Cell Culture. All cells were maintained in an incubator at 37 degrees C and 5% CO2 with 95% humidity. The PDC lines were cultured according to standard operating procedures established by the NCI PDMR (https://pdmr.cancer.gov/sops/default.htm). Briefly, all PDCs were thawed and cultured in Matrigel-coated flasks prepared with a working solution of 1X Ham's F-12 nutrient mix, without supplementation (Invitrogen, Waltham, MA, cat. 11765054), 100 U/mL penicillin-streptomycin (Invitrogen, cat. 15140122), and 2.5% Matrigel (Corning Inc., Corning, NY, cat. 354248) for the first three passages. All PDCs were cultured in complete DMEM/F-12 media containing advanced DMEM/F-12 (Invitrogen, cat. 12634028), 4.9% defined fetal bovine serum, heat inactivated (HyClone Laboratories Inc., Logan, UT, cat. SH30070.03HI), 389 ng/mL hydrocortisone (Sigma-Aldrich, cat. H4001), 9.7 ng/mL human EGF recombinant protein (Invitrogen, cat. PHG0313), 23.4 microg/mL adenine (Sigma-Aldrich, cat. A2786), 97.3 U/mL penicillin-streptomycin (Invitrogen, cat. 15140122), 1.9 mM L-glutamine (Invitrogen, cat. 25030081), and 9.7 microM Y-27632 dihydrochloride (Tocris Bioscience, Bristol, United Kingdom, cat. 1254). The PDCs were cultured in complete DMEM/F12 media without 9.7 microM Y-27632 dihydrochloride for at least two passages prior to the screen. The established cell line HOP-62 was cultured in RPMI 1640 medium, HEPES (Invitrogen, cat. 22400105) with 10% defined fetal bovine serum (HyClone Laboratories Inc., cat. SH30070.03) and 2 mM L-glutamine (Invitrogen, cat. 25030081). The pooled donor HUVEC were cultured in endothelial cell growth medium 2 (PromoCell, Heidelberg, Germany, cat. C-22011) and the hMSC were cultured in mesenchymal stem cell growth medium 2 (PromoCell, cat. C-28009). For all experiments, HUVEC and hMSC were used at passages </=5, while the malignant cell lines were used at passages </=15. […]

[1] = second compound 0.1 µM, first compound 0.0316 µM
[2] = second compound 0.1 µM, first compound 0.1 µM
[3] = second compound 0.1 µM, first compound 0.316 µM
[4] = second compound 0.1 µM, first compound 1 µM
[5] = second compound 0.1 µM, first compound 3.16 µM
[6] = second compound 0.1 µM, first compound 10 µM
[7] = second compound 0.316 µM, first compound 0.0316 µM
[8] = second compound 0.316 µM, first compound 0.1 µM
[9] = second compound 0.316 µM, first compound 0.316 µM
[10] = second compound 0.316 µM, first compound 1 µM
[11] = second compound 0.316 µM, first compound 3.16 µM
[12] = second compound 0.316 µM, first compound 10 µM
[13] = second compound 1 µM, first compound 0.0316 µM
[14] = second compound 1 µM, first compound 0.1 µM
[15] = second compound 1 µM, first compound 0.316 µM
[16] = second compound 1 µM, first compound 1 µM
[17] = second compound 1 µM, first compound 3.16 µM
[18] = second compound 1 µM, first compound 10 µM
[19] = second compound 3.16 µM, first compound 0.0316 µM
[20] = second compound 3.16 µM, first compound 0.1 µM
[21] = second compound 3.16 µM, first compound 0.316 µM
[22] = second compound 3.16 µM, first compound 1 µM
[23] = second compound 3.16 µM, first compound 3.16 µM
[24] = second compound 3.16 µM, first compound 10 µM
[25] = second compound 10 µM, first compound 0.0316 µM
[26] = second compound 10 µM, first compound 0.1 µM
[27] = second compound 10 µM, first compound 0.316 µM
[28] = second compound 10 µM, first compound 1 µM
[29] = second compound 10 µM, first compound 3.16 µM
[30] = second compound 10 µM, first compound 10 µM
[31] = second compound 0.1 µM, first compound 0.000316 µM
[32] = second compound 0.1 µM, first compound 0.001 µM
[33] = second compound 0.1 µM, first compound 0.00316 µM
[34] = second compound 0.1 µM, first compound 0.01 µM
[35] = second compound 0.316 µM, first compound 0.000316 µM
[36] = second compound 0.316 µM, first compound 0.001 µM
[37] = second compound 0.316 µM, first compound 0.00316 µM
[38] = second compound 0.316 µM, first compound 0.01 µM
[39] = second compound 1 µM, first compound 0.000316 µM
[40] = second compound 1 µM, first compound 0.001 µM
[41] = second compound 1 µM, first compound 0.00316 µM
[42] = second compound 1 µM, first compound 0.01 µM
[43] = second compound 3.16 µM, first compound 0.000316 µM
[44] = second compound 3.16 µM, first compound 0.001 µM
[45] = second compound 3.16 µM, first compound 0.00316 µM
[46] = second compound 3.16 µM, first compound 0.01 µM
[47] = second compound 10 µM, first compound 0.000316 µM
[48] = second compound 10 µM, first compound 0.001 µM
[49] = second compound 10 µM, first compound 0.00316 µM
[50] = second compound 10 µM, first compound 0.01 µM

Structure (SMILES)	IC50 (second compound 0.1 µM) [nM]	IC50 (second compound 0.316 µM) [nM]	IC50 (second compound 1 µM) [nM]	IC50 (second compound 3.16 µM) [nM]	IC50 (second compound 10 µM) [nM]	viability, T/C [1] [%]	viability, T/C [2] [%]	viability, T/C [3] [%]	viability, T/C [4] [%]	viability, T/C [5] [%]	viability, T/C [6] [%]	viability, T/C [7] [%]	viability, T/C [8] [%]	viability, T/C [9] [%]	viability, T/C [13] [%]	viability, T/C [14] [%]	viability, T/C [19] [%]	viability, T/C [20] [%]	viability, T/C [25] [%]	viability, T/C [26] [%]	also measured
CC(C)NCC(C(=O)N1CCN(c2ncnc3c2C(C)CC3O)CC1)c1ccc(Cl)cc1 (stereo not given) + C=CC(=O)N1CCN(c2nc(=O)n(-c3c(C)ccnc3C(C)C)c3nc(-c4c(O)cccc4F)c(F)cc23)C(C)C1	69.2	70	88.9	110	< 31.6	60.9	45.3	22.2	12.4	7.1	5.4	53.8	49.1	28.2	57.2	49.6	55.7	51	43.3	28.1	viability, T/C [10]: 12.9%; viability, T/C [11]: 6.09%; viability, T/C [12]: 5.39%; viability, T/C [15]: 27.2%; viability, T/C [16]: 11.8%; viability, T/C [17]: 6.8%; viability, T/C [18]: 5.57%; viability, T/C [21]: 36.3%; viability, T/C [22]: 15.1%; viability, T/C [23]: 7.34%; viability, T/C [24]: 4.5%; viability, T/C [27]: 19.5%; viability, T/C [28]: 12.8%; viability, T/C [29]: 8.3%; viability, T/C [30]: 5.28%
CC(C)n1nc(-c2ccc3oc(N)nc3c2)c2c(N)ncnc21 + C=CC(=O)N1CCN(c2nc(=O)n(-c3c(C)ccnc3C(C)C)c3nc(-c4c(O)cccc4F)c(F)cc23)C(C)C1	< 0.316	0.36	0.592	0.671	< 0.316	10.2	8.15	–	–	–	–	11.4	8.53	–	11	8.43	12.4	8.73	11.8	9.42	viability, T/C [31]: 42.3%; viability, T/C [32]: 33.4%; viability, T/C [33]: 19.2%; viability, T/C [34]: 15.4%; viability, T/C [35]: 51.1%; viability, T/C [36]: 41%; viability, T/C [37]: 25.3%; viability, T/C [38]: 14.2%; viability, T/C [39]: 62.8%; viability, T/C [40]: 38.9%; viability, T/C [41]: 25.5%; viability, T/C [42]: 15.3%; viability, T/C [43]: 60.2%; viability, T/C [44]: 43.8%; viability, T/C [45]: 31.9%; viability, T/C [46]: 18.6%; viability, T/C [47]: 36.9%; viability, T/C [48]: 28.8%; viability, T/C [49]: 25%; viability, T/C [50]: 16.2%
CC1(C)CCC(CN2CCN(c3ccc(C(=O)NS(=O)(=O)c4ccc(NCC5CCOCC5)c([N+](=O)[O-])c4)c(Oc4cnc5[nH]ccc5c4)c3)CC2)=C(c2ccc(Cl)cc2)C1 + C=CC(=O)N1CCN(c2nc(=O)n(-c3c(C)ccnc3C(C)C)c3nc(-c4c(O)cccc4F)c(F)cc23)C(C)C1	< 31.6	2160	2010	3670	< 31.6	46.2	49.4	50.5	43.1	39.1	12.1	53.4	51.9	57.7	55	57.1	64.9	58.9	43.7	46.5	viability, T/C [10]: 56.2%; viability, T/C [11]: 47.1%; viability, T/C [12]: 20.5%; viability, T/C [15]: 50.8%; viability, T/C [16]: 52.6%; viability, T/C [17]: 48%; viability, T/C [18]: 13%; viability, T/C [21]: 48.7%; viability, T/C [22]: 54.4%; viability, T/C [23]: 55.7%; viability, T/C [24]: 12.2%; viability, T/C [27]: 41.4%; viability, T/C [28]: 41.5%; viability, T/C [29]: 32%; viability, T/C [30]: 16.2%
Cn1ncnc1[C@H]1c2n[nH]c(=O)c3cc(F)cc(c23)N[C@@H]1c1ccc(F)cc1 + C=CC(=O)N1CCN(c2nc(=O)n(-c3c(C)ccnc3C(C)C)c3nc(-c4c(O)cccc4F)c(F)cc23)C(C)C1	23.3	13.5	> 100	> 100	< 0.316	46.8	43.5	–	–	–	–	41.5	41.5	–	61	59.4	52.9	49	38	33.9	viability, T/C [31]: 64.7%; viability, T/C [32]: 68.3%; viability, T/C [33]: 51.5%; viability, T/C [34]: 58.3%; viability, T/C [35]: 68.5%; viability, T/C [36]: 69.2%; viability, T/C [37]: 53%; viability, T/C [38]: 56.1%; viability, T/C [39]: 61.9%; viability, T/C [40]: 63.8%; viability, T/C [41]: 63%; viability, T/C [42]: 54.4%; viability, T/C [43]: 66.6%; viability, T/C [44]: 64.3%; viability, T/C [45]: 57%; viability, T/C [46]: 66.9%; viability, T/C [47]: 40.1%; viability, T/C [48]: 46.6%; viability, T/C [49]: 42.9%; viability, T/C [50]: 36.4%
